# Source: patent US20240293493A1, “COMPOSITION FOR ALLEVIATING, TREATING, OR PREVENTING MUSCULAR DISEASES, OR IMPROVING MUSCULAR FUNCTIONS, CONTAINING KOREAN MINT EXTRACT OR TILIANIN AS ACTIVE INGREDIENT” (AAT COSTECH CO., LTD., priority 2020, published 2024)
# Columns and labels:
# mTOR = mTOR activity in L6 myotubes by mTOR sandwich ELISA kit; format: cell-based; conditions: 20 μM or 40 μM tilianin, vs control group
# Method: It is known that the activation of the mTOR protein by phosphorylation can induce muscle protein synthesis in muscle cells by the PI3K/Akt signaling pathway and can activate proteins involved in increase of muscle mass. Therefore, in order to investigate the activity of inducing muscle formation of Korean mint, the activity of mTOR was investigated using a mTOR sandwich ELISA kit (Cell Signaling Technology, Beverly, MA, USA).
# L6 myoblasts (ATCC; Manassas, VA, USA) were seeded on a 6-well plate at 1×10^5 cells/well with Dulbecco's modified Eagle's medium (DMEM; Hyclone) containing 10% fetal bovine serum (FBS; Hyclone, Logan, UT, USA) and then cultured for 24 hours. […]
# (Hyclone) containing 2% horse serum (HS; Hyclone). […] Proteins in the obtained cell lysate were quantified at a concentration of 1 mg/mL by Bradford assay (Bio-Rad Laboratories Inc., Hercules, CA, USA). […] 2 minutes later, the mTOR level in the myotubes treated with the extract of Korean mint leaf was measured by measuring absorbance at 450 nm. […] The difference between groups was analyzed through Duncan's multiple range test by one-way analysis of variance using the SPSS25.0 statistical package (SPSS Inc., Chicago, IL, USA). […]
# mTOR activity was measured in the same manner as in Example 3 except that the extracts of the aerial part of Korean mint of Example 1-2 to Example 1-8 were treated at 80 μg/mL. […]
# MuRF1 = MuRF1 mRNA expression in TNF-α-treated L6 myotubes (RT-PCR); format: cell-based; conditions: TNF-α treatment, 20 µM or 40 µM tilianin
# Method: (§1) L6 myoblasts (ATCC), which are muscle cells, were added to a 6-well plate with DMEM (Hyclone) containing 10% FBS (Hyclone) at 1×10^5 cells/mL. When the cell density reached about 80-85%, the medium remaining in the well was removed and differentiation into myotubes was induced by treating the cells with DMEM (Hyclone) containing 2% HS (Hyclone). The differentiation was performed for a total of 6 days while replacing the medium with a fresh one every 2 days. After the differentiation, […], which was dissolved in DMEM (Hyclone) containing 50 ng/ml tumor necrosis factor alpha (TNF-α; PeproTech, Rocky Hills, NJ, USA). 12 hours later, total RNA was isolated using a TRIzol reagent (Takara, Otsu, Japan). The isolated total RNA was quantified using NanoDrop 1000 (Thermo Fisher Scientific Inc., Waltham, MA, USA). cDNA was synthesized from 16 μL of the quantified RNAs using a reverse transcriptase premix (ELPIS-Biotech) and a PCR machine (Gene Amp PCR System 2700; Applied Biosystems, Foster City, CA, USA) under the condition of 42° C. for 55 minutes and 70° C. for 15 minutes. PCR was performed by repeating 30 cycles of 95° C. for 30 seconds, 60° C. for 1 minute and 72° C. for 1 minute using 1 μL of cDNA from 16 μL of the produced cDNA, specific primers described below (Bioneer, Daejeon, Korea) and a PCR premix (ELPIS-Biotech). […]
# atrogin-1 = atrogin-1 mRNA expression in TNF-α-treated L6 myotubes (RT-PCR); format: cell-based; conditions: TNF-α treatment, 20 µM or 40 µM tilianin
# Method: as §1
# [1] = system: muscle atrophy-induced mice; assay: Muscular strength in mice with skin-stapler immobilization muscle atrophy; format: in vivo, mice (C57BL/6J); conditions: tilianin 20 mg/kg orally every day, compared with muscle atrophy group
# Method: (§2) 7-week-old male mice (C57BL/6J; DBL, Korea) were purchased as experimental animals. The breeding environment was maintained at a temperature of 23±2° C. and a relative humidity of 55±10%. Before the start of the experiment, a total of 20 mice were randomly divided into groups of 5 mice each. After a week of acclimation, anesthesia was induced by intraperitoneal injection of 325 mg/kg tribromoethanol (Sigma-Aldrich). After the anesthesia, the right hindlimb gastrocnemius muscle and the right sole of the mice in a muscle atrophy group and a sample administration group were stapled using a skin stapler (Unidus, Chungcheongbuk-do, Korea) to damage the muscle and keep the right hindlimb from moving. This state was maintained for a week. […]
# After the end of the oral administration period, the muscular strength of the mice was measured using a muscular strength meter (Panlab, Barcelona, Spain). […]
# (§3) After inducing muscle atrophy in the same manner as in Example 12-1, tilianin was orally administered every day at a concentration of 20 mg/kg. Then, muscular strength and muscle weight were measured in the same manner as in Example 12-2 and Example 12-3.
# [2] = system: muscle atrophy-induced mice; assay: Tibialis anterior muscle weight in muscle atrophy-induced mice; format: in vivo, mice (C57BL/6J); conditions: tilianin 20 mg/kg orally every day, compared with muscle atrophy group
# Method: as §2, §3
smiles,measurement,setting,value
COc1ccc(-c2cc(=O)c3c(O)cc(O[C@@H]4O[C@H](CO)[C@@H](O)[C@H](O)[C@H]4O)cc3o2)cc1 [tilianin],mTOR activity (FIG. 3),mTOR,significantly increased
same,mRNA of MuRF1 (FIG. 4),MuRF1,decreased
same,mRNA of atrogin-1 (FIG. 4),atrogin-1,decreased
same,increase of muscular strength,[1],30.3%
same,increase of muscle weight,[2],15.2%
